From ChEMBL document CHEMBL2074226, “Molecular evidence of organic ion transporters in the rat adrenal cortex with adrenocorticotropin-regulated zonal expression” (Endocrinology, 2003)

Biological target: T1, Solute carrier family 22 member 6 (Rattus norvegicus, UniProt O35956)
T1 sequence (O35956 whole entry): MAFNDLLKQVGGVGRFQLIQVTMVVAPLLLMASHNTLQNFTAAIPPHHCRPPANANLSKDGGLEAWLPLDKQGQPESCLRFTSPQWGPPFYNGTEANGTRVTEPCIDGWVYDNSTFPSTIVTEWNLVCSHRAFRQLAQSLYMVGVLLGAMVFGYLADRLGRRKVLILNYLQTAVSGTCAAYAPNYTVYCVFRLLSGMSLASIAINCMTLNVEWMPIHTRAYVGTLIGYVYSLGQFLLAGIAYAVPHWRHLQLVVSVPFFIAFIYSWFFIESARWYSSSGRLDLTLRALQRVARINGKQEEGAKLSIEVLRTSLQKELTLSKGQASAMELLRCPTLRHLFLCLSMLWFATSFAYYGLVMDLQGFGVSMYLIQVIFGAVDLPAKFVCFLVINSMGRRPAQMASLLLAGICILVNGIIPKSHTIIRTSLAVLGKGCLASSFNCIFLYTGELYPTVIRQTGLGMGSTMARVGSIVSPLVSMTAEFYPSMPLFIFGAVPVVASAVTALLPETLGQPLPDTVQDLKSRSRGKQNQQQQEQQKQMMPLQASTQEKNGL
Experiment: TP_TRANSPORTER: inhibition of PAH uptake (PAH: 10 uM, Corticosterone: 500 uM) in Xenopus laevis oocytes
Format: functional, cell-based
Conditions: oocyte

## C[C@]12C[C@H](O)[C@H]3[C@@H](CCC4=CC(=O)CC[C@@]43C)[C@@H]1CC[C@@H]2C(=O)CO [CORTICOSTERONE]
  Activity: inhibitor [(at a rough estimate) 25 % of control]
